The values below come from publication PMC8371461 (Frontiers in Pharmacology, 2021).

The Kd is the concentration at which binding is half-saturated. The low end stands for a tighter complex, the high end for a looser complex.

For assay [1], the target named is T1, CDKL3 (Homo sapiens, UniProt Q8IVW4).
T1 construct: purchased DiscoverX (KINOMEscan)
Nature of the assay: kinome scan. Type of assay: binding. Particulars: 10 µM.

Assay [2] deals with T2, ZAK (Homo sapiens, UniProt Q9NYL2).
T2 construct: purchased DiscoverX (KINOMEscan)
Nature of the assay: kinome scan. Type of assay: binding. The following applies: 10 µM.

The target of assay [3] is T3, LYN (Homo sapiens, UniProt P07948).
T3 construct: purchased DiscoverX (KINOMEscan)
Nature of the assay: kinome scan. Type of assay: binding. Particulars: 10 µM.

For assay [4], the target named is T4, MAP3K2 (Homo sapiens, UniProt Q9Y2U5).
T4 construct: purchased DiscoverX (KINOMEscan)
Nature of the assay: kinome scan. Type of assay: binding. The following applies: 10 µM.

For assay [5], the target named is T5, ACVR2A (Homo sapiens, UniProt P27037).
T5 construct: purchased DiscoverX (KINOMEscan)
Kind of assay: kinome scan. Type of assay: binding. Particulars: 10 µM.

Assay [6] deals with TYK2 (Homo sapiens, UniProt P29597). Nature of the assay: Kd select analysis (DiscoverX). The class given is binding.
Method: Hits are identified by an ultra-sensitive quantitative PCR detecting the specific DNA tag linked to each kinase (Supplementary Figure S2). The drug is used at a concentration of 10 µM and results are expressed as the percentage of signal (kinase PCR detection) with respect to DMSO control conditions. […] Interactions between 0 and 20% of reduction were considered to be the most significant ones.
Assay [7] addresses T6, PKN1 (Homo sapiens, UniProt Q16512).
T6 construct: purchased DiscoverX (KINOMEscan)
Kind of assay: kinome scan. The class given is binding. The following applies: 10 µM.

Assay [8] concerns the target T7, PCTK3 (Homo sapiens, UniProt Q07002).
T7 construct: purchased DiscoverX (KINOMEscan)
Nature of the assay: kinome scan. Type of assay: binding. Particulars: 10 µM.

Assay [9] concerns the target T8, NEK4 (Homo sapiens, UniProt P51957).
T8 construct: purchased DiscoverX (KINOMEscan)
Nature of the assay: kinome scan. The class given is binding. The following applies: 10 µM.

For assay [10], the target named is T9, MAP3K4 (Homo sapiens, UniProt Q9Y6R4).
T9 construct: purchased DiscoverX (KINOMEscan)
Kind of assay: kinome scan. Particulars: 10 µM. Type of assay: binding.

The target of assay [11] is T10, MYLK (Homo sapiens, UniProt Q15746).
T10 construct: purchased DiscoverX (KINOMEscan)
Kind of assay: kinome scan. The class given is binding. The following applies: 10 µM.

The target of assay [12] is T11, GRK7 (Homo sapiens, UniProt Q8WTQ7).
T11 construct: purchased DiscoverX (KINOMEscan)
Nature of the assay: kinome scan. The class given is binding. Particulars: 10 µM.

Assay [13] concerns the target EGFR(L747-T751delSins). Kind of assay: kinome scan. Type of assay: binding, human. The following applies: 10 µM.
For assay [14], the target named is T12, NEK6 (Homo sapiens, UniProt Q9HC98).
T12 construct: purchased DiscoverX (KINOMEscan)
Kind of assay: kinome scan. Type of assay: binding. The following applies: 10 µM.

Assay [15] deals with T13, BLK (Homo sapiens, UniProt P51451).
T13 construct: purchased DiscoverX (KINOMEscan)
Kind of assay: kinome scan. Type of assay: binding. The following applies: 10 µM.

Assay [16] concerns the target T14, CSNK1A1L (Homo sapiens, UniProt Q8N752).
T14 construct: purchased DiscoverX (KINOMEscan)
Kind of assay: kinome scan. Particulars: 10 µM. Type of assay: binding.

Assay [17] deals with T15, CSNK1E (Homo sapiens, UniProt P49674).
T15 construct: purchased DiscoverX (KINOMEscan)
Nature of the assay: kinome scan. Type of assay: binding. Particulars: 10 µM.

In assay [18] the target is T16, CSNK1G2 (Homo sapiens, UniProt P78368).
T16 construct: purchased DiscoverX (KINOMEscan)
Kind of assay: kinome scan. The class given is binding. Particulars: 10 µM.

The target in assay [19] is T17, TBK1 (Homo sapiens, UniProt Q9UHD2).
T17 construct: purchased DiscoverX (KINOMEscan)
Kind of assay: kinome scan. The class given is binding. Particulars: 10 µM.

The target in assay [20] is T18, KIT(V559DT670I) (Homo sapiens, UniProt P10721, T670I/V559D).
T18 construct: purchased DiscoverX (KINOMEscan)
Nature of the assay: kinome scan. The class given is binding. Particulars: 10 µM.

The target in assay [21] is T19, EPHB3 (Homo sapiens, UniProt P54753).
T19 construct: purchased DiscoverX (KINOMEscan)
Nature of the assay: kinome scan. Type of assay: binding. The following applies: 10 µM.

In assay [22] the target is T20, TAOK3 (Homo sapiens, UniProt Q9H2K8).
T20 construct: purchased DiscoverX (KINOMEscan)
Nature of the assay: kinome scan. Type of assay: binding. The following applies: 10 µM.

Assay [23] concerns the target T21, NEK1 (Homo sapiens, UniProt Q96PY6).
T21 construct: purchased DiscoverX (KINOMEscan)
Nature of the assay: kinome scan. Type of assay: binding. Particulars: 10 µM.

The target in assay [24] is T22, RIPK4 (Homo sapiens, UniProt P57078).
T22 construct: purchased DiscoverX (KINOMEscan)
Kind of assay: kinome scan. The following applies: 10 µM. The class given is binding.

T15 sequence (P49674 whole entry): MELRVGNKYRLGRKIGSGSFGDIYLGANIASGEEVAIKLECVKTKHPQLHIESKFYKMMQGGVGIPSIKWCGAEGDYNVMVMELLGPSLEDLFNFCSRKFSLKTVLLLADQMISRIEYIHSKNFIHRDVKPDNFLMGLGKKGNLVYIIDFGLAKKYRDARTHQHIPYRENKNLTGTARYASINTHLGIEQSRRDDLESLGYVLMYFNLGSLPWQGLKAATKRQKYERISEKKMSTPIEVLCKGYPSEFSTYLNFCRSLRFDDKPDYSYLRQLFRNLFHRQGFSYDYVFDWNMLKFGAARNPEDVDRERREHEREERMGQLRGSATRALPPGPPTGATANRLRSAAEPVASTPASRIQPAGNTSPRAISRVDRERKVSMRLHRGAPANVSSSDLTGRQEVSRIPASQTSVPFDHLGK
T3 sequence (P07948 whole entry): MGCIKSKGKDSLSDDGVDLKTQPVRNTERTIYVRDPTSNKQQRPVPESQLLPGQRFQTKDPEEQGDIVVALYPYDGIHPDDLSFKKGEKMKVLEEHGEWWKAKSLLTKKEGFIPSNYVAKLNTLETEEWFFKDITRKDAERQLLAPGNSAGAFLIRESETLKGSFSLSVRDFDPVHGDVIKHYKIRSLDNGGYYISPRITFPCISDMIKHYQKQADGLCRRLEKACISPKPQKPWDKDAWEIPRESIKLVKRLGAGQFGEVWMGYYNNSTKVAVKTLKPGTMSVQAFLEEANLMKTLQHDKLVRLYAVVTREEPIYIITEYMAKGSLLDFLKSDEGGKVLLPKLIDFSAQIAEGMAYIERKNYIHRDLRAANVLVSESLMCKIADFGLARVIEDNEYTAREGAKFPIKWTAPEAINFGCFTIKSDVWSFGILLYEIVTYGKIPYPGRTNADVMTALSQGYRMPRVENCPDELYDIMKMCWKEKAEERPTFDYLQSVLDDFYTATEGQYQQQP
T16 sequence (P78368 whole entry): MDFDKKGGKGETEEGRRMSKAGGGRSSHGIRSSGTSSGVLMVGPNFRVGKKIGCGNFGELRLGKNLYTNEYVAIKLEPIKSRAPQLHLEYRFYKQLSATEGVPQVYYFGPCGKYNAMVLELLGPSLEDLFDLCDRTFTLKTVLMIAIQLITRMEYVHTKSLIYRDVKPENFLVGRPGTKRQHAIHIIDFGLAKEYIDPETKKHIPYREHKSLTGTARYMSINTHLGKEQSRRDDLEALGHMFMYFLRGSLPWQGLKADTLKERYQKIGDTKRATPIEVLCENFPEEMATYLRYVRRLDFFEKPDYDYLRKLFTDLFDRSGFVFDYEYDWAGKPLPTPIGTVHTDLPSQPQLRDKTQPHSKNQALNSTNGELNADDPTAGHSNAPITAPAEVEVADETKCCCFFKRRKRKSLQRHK
T9 sequence (Q9Y6R4 whole entry): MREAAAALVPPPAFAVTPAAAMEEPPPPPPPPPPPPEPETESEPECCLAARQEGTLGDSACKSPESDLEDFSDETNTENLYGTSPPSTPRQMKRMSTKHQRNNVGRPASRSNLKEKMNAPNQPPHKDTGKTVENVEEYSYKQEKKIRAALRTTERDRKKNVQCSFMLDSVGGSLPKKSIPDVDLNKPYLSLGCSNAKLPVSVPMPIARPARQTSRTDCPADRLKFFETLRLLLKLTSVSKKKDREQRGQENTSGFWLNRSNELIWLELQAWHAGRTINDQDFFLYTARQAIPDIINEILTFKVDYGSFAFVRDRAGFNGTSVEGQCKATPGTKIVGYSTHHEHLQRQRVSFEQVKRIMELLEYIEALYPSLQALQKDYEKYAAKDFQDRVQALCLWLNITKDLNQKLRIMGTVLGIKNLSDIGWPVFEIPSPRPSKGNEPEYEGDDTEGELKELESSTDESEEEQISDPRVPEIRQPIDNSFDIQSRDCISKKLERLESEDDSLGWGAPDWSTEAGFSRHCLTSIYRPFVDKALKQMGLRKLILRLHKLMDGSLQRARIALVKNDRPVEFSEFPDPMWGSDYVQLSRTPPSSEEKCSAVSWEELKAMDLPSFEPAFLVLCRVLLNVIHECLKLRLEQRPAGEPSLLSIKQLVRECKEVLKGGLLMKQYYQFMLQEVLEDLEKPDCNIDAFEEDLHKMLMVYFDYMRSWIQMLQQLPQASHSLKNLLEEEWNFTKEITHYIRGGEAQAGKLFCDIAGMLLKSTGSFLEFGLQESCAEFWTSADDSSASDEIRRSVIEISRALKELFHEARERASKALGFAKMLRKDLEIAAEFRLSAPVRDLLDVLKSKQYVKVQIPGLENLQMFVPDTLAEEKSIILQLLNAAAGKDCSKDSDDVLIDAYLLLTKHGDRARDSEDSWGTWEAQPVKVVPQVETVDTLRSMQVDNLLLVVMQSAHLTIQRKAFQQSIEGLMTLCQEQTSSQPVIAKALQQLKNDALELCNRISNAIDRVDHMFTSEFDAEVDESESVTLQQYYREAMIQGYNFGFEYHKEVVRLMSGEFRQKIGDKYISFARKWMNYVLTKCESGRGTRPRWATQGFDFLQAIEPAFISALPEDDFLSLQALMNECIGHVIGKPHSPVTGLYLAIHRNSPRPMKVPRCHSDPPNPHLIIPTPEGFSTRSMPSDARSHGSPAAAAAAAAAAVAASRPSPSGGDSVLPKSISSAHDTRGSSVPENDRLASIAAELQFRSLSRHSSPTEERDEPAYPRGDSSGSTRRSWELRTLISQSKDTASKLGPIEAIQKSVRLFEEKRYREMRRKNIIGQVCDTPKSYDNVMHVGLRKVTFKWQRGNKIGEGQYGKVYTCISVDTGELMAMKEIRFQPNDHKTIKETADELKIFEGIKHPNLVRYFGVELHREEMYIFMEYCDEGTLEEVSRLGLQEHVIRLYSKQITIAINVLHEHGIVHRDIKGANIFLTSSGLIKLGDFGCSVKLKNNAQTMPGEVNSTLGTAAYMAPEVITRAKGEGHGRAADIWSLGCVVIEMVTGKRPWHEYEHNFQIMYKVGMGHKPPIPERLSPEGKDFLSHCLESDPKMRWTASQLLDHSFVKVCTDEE
T8 sequence (P51957 whole entry): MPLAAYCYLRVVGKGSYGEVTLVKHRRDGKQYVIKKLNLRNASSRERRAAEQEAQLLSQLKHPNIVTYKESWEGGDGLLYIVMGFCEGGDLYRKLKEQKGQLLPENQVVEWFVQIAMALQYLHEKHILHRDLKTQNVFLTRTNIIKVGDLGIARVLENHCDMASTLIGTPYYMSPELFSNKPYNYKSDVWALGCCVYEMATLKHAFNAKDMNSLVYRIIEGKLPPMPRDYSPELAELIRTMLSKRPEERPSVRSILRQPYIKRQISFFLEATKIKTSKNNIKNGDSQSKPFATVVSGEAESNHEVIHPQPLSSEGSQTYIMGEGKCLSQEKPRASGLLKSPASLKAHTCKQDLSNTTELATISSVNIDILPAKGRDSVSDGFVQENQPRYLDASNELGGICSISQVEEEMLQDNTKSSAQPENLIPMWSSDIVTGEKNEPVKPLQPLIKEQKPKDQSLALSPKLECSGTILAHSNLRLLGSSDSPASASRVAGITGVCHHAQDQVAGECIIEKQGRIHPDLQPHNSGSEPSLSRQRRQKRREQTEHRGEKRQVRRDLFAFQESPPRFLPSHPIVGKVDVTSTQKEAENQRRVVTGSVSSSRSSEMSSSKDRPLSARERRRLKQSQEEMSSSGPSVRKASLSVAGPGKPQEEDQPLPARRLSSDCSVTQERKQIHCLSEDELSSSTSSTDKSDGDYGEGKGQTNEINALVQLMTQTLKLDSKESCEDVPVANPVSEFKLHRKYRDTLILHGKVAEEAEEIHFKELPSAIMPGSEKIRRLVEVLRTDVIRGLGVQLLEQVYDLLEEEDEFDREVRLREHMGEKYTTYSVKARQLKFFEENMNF
T22 sequence (P57078 whole entry): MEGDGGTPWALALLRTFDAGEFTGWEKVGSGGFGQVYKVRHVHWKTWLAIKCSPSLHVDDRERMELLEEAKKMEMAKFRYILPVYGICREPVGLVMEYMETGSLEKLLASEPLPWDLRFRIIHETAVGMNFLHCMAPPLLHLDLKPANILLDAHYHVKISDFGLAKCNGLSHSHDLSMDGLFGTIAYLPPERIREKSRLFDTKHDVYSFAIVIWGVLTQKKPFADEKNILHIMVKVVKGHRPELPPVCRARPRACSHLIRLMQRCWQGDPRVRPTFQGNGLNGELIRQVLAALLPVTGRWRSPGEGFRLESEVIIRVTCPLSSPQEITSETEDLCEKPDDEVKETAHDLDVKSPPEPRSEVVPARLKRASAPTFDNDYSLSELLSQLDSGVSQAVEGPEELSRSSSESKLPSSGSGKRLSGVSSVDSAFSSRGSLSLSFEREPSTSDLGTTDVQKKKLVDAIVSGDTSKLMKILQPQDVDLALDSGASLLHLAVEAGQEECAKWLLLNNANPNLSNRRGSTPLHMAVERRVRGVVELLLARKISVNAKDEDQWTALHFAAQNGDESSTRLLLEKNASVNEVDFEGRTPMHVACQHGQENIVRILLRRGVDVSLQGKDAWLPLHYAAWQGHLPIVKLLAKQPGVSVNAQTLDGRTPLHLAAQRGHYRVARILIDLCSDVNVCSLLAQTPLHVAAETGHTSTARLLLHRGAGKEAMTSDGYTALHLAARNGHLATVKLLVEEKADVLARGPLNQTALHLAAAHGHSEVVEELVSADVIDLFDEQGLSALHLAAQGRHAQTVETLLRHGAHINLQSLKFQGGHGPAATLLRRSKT
TYK2, sequence (P29597 897-1176): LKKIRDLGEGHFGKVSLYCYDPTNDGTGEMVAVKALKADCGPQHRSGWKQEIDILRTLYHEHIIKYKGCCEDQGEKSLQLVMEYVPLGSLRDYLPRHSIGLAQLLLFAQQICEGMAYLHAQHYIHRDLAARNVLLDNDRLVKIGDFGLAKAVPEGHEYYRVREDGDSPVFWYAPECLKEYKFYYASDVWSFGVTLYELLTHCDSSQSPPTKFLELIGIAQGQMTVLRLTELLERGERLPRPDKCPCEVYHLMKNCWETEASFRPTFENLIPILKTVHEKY

For the compound `Nc1ccc(N=Nc2ccccc2)c(N)n1` [phenazopyridine, 2,6-diamino-3-(phenylazo)pyridine], the kinase inhibition is listed as 74 in assay [1]; 100 in [2]; 82 in assay [3]; 85 in assay [4]; 94 in [5]; 100 in [7]. For the same compound, the kinase inhibition in assay [8] was found to be 75; in assay [9] it was 100; in [10], 100; in assay [11], 100; in [12] it was 100; in assay [13] it was 80. For the same compound, the kinase inhibition in assay [14] stood at 100; in [16] it was 100; in assay [17] it was 44; in [18], 82; in assay [19], 100; in assay [20] it was 71. Also, the kinase inhibition in [21] is given as 85; in assay [22], 79; in assay [23], 100; in assay [24] it was 100. Also, binding in assay [6] was put at a Kd of 26 µM. The “remaining binding (% of control)” value in assay [15] is listed as 100.
